According to publication PMC9120017, “Inhibition mechanism of the chloride channel TMEM16A by the pore blocker 1PBC” (Nature Communications, 2022):
Like-named read-outs stand apart in the source and are kept apart here.

Target: T1, mouse TMEM16A mutant V543A (Mus musculus, UniProt Q8BHY3, V543A)
T1 construct: expressed in transfected cells; host or cells: HEK293T
T1 sequence (Q8BHY3 1-960 V543A): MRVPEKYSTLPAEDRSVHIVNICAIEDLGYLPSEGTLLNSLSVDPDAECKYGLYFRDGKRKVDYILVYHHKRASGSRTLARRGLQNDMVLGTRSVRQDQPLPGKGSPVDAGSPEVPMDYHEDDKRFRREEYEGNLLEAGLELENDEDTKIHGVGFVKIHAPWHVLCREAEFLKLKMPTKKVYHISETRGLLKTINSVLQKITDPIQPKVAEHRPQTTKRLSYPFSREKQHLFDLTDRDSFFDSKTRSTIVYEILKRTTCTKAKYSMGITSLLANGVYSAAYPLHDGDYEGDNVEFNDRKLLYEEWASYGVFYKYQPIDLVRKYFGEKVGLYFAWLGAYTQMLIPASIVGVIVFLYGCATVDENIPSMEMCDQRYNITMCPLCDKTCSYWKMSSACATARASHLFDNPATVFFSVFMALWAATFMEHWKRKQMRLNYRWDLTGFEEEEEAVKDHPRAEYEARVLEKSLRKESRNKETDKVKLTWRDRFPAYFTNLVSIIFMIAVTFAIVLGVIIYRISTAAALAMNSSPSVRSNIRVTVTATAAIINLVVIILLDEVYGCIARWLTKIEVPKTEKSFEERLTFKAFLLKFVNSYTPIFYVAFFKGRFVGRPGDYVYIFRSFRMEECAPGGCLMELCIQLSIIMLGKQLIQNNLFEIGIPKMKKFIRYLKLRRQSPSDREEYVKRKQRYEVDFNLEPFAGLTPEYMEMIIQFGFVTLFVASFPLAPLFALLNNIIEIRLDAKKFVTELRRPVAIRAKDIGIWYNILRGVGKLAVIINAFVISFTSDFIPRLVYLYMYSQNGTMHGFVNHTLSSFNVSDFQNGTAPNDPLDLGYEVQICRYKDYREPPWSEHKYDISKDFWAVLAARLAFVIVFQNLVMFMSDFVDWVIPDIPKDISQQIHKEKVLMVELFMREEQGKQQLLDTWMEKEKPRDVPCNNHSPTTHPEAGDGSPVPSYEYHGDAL
Test: Inside-out patch recording of 1PBC block, mutant V543A
Assay type: cell-based
Conditions: for remaining activity at 100 µM: 100 µM 1PBC
Protocol: HEK293T cells (ATCC CRL-1573) were maintained in Dulbecco’s modified Eagle’s medium (DMEM; Sigma-Aldrich) supplemented with 10 U ml^−1 penicillin, 0.1 mg ml^−1 streptomycin (Sigma-Aldrich), 2 mM L-glutamine (Sigma-Aldrich), and 10% FBS (Sigma-Aldrich) in a humidified atmosphere containing 5% CO2 at 37 °C. HEK293S GnTI^− cells (ATCC CRL-3022) were maintained in HyClone HyCell TransFx-H medium (GE Healthcare) supplemented with 10 U ml^−1 penicillin, 0.1 mg ml^−1 streptomycin, 4 mM L-glutamine, 0.15% poloxamer 188 (Sigma-Aldrich), and 1% FBS in an atmosphere containing 5% CO2 at 185 rpm at 37 °C. The ac splice variant of mouse TMEM16A (UniProt ID: Q8BHY3), mouse TMEM16B (UniProt ID: Q8CFW1), or mouse TMEM16F (UniProt ID: Q6P9J9) bearing a 3C cleavage site, a Venus YFP, a Myc tag, and a Streptavidin-binding peptide (SBP) downstream of the open reading frame in a modified pcDNA3.1 vector (Invitrogen) were used as described previously[21],[31]. Mutations were introduced using a modified QuikChange method[58] and were verified by sequencing.
HEK293T cells were transfected with 3–4 μg DNA per 6 cm Petri dish using the calcium phosphate co-precipitation method and were used within 24–96 h after transfection. Recordings were performed on inside-out patches excised from HEK293T cells expressing the construct of interest. Patch pipettes were pulled from borosilicate glass capillaries (O.D. 1.5 mm, I.D. 0.86 mm, Sutter Instrument) and were fire-polished with a microforge (Narishige) before use. Pipette resistance was typically 3–8 MΩ when filled with the recording solutions detailed below. Seal resistance was typically 4 GΩ or higher. Voltage-clamp recordings were made using Axopatch 200B, Digidata 1550, and Clampex 10.7 (Molecular Devices). Analog signals were filtered with the in-built 4-pole Bessel filter at 10 kHz and were digitized at 20 kHz. Solution exchange was achieved using a gravity-fed system through a theta glass pipette mounted on an ultra-fast piezo-driven stepper (Siskiyou). […] All recordings were performed at 20 °C.
A symmetrical ionic condition was used throughout. Stock solution with Ca^2+-EGTA contained 150 mM NaCl, 5.99 mM Ca(OH)2, 5 mM EGTA, and 10 mM HEPES at pH 7.40. Stock solution with EGTA contained 150 mM NaCl, 5 mM EGTA, and 10 mM HEPES at pH 7.40. Free Ca^2+ concentrations were adjusted by mixing the stock solutions at the required ratios calculated using the WEBMAXC program (http://web.stanford.edu/~cpatton/webmaxcS.htm). Patch pipettes were filled with the stock solution with Ca^2+-EGTA, which has a free Ca^2+ concentration of 1 mM. 1PBC (ChemBridge) stock was reconstituted in anhydrous DMSO (Sigma-Aldrich) at 100 mM and stored at −20 °C. Working solutions with 1PBC were prepared by serial dilution. Unless otherwise stated, experiments were performed at a saturating Ca^2+ concentration as shown in Supplementary Table 1 and the primary data were corrected for current rundown as described previously[21],[25].
Concentration-response relations, obtained from the ratio of the I-V plots before and after the application of the blocker, were fitted to the Hill equation,1 I/Imax=1/1+IC50/[blocker]^h where I/Imax is the normalized current responses, IC50 defines the concentration at which inhibition is at its half-maximum, and h is the Hill coefficient.

In the case of `N#Cc1c(C(F)(F)F)cc(O)n2c1nc1ccccc12` [1PBC], the IC50 (0 mV, 15 µM Ca2+) is reported as 11.2 µM, the remaining activity at 3 µM (3 µM 1PBC, +80 mV, saturating Ca2+ (15 µM), read-out: I/Imax) is reported as 76.2% and the remaining activity at 3 µM (3 µM 1PBC, -80 mV, saturating Ca2+ (15 µM), read-out: I/Imax) is reported as 86.2%. For the same molecule, the remaining activity at 10 µM (10 µM 1PBC, +80 mV, saturating Ca2+ (15 µM), read-out: I/Imax) was 42.8%, the remaining activity at 10 µM (10 µM 1PBC, -80 mV, saturating Ca2+ (15 µM), read-out: I/Imax) was 67.5% and the remaining activity at 30 µM (30 µM 1PBC, +80 mV, saturating Ca2+ (15 µM), read-out: I/Imax) was 20.1%. The remaining activity at 30 µM (30 µM 1PBC, -80 mV, saturating Ca2+ (15 µM), read-out: I/Imax) was 43.8%, the remaining activity at 100 µM (+80 mV, saturating Ca2+ (15 µM), read-out: I/Imax) was 6.35% and the remaining activity at 100 µM (-80 mV, saturating Ca2+ (15 µM), read-out: I/Imax) was 18.7%. The remaining activity at 3 µM (1PBC 3, 0 mV, read-out: fraction of unblocked current) was 79.2%, the remaining activity at 3 µM (1PBC 3, 20 mV, read-out: fraction of unblocked current) was 77.2% and the remaining activity at 3 µM (1PBC 3, 40 mV, read-out: fraction of unblocked current) was 76.3%. For the same molecule, the remaining activity at 3 µM (1PBC 3, 60 mV, read-out: fraction of unblocked current) was 75.5%, the remaining activity at 3 µM (1PBC 3, 80 mV, read-out: fraction of unblocked current) was 76.2% and the remaining activity at 3 µM (1PBC 3, 100 mV, read-out: fraction of unblocked current) was 78.6%. It also gave a remaining activity at 3 µM (1PBC 3, 120 mV, read-out: fraction of unblocked current) of 80.1%, a remaining activity at 3 µM (1PBC 3, 140 mV, read-out: fraction of unblocked current) of 83.1% and a remaining activity at 3 µM (1PBC 3, -20 mV, read-out: fraction of unblocked current) of 81.1%. For the same molecule, the remaining activity at 3 µM (1PBC 3, -40 mV, read-out: fraction of unblocked current) was 83.5%, the remaining activity at 3 µM (1PBC 3, -60 mV, read-out: fraction of unblocked current) was 84.9% and the remaining activity at 3 µM (1PBC 3, -80 mV, read-out: fraction of unblocked current) was 86.2%. It also gave a remaining activity at 3 µM (1PBC 3, -100 mV, read-out: fraction of unblocked current) of 87.3%, a remaining activity at 3 µM (1PBC 3, -120 mV, read-out: fraction of unblocked current) of 88.4% and a remaining activity at 3 µM (1PBC 3, -140 mV, read-out: fraction of unblocked current) of 89.4%. For the same molecule, the remaining activity at 10 µM (1PBC 10, 0 mV, read-out: fraction of unblocked current) was 52.5%, the remaining activity at 10 µM (1PBC 10, 20 mV, read-out: fraction of unblocked current) was 48.7% and the remaining activity at 10 µM (1PBC 10, 40 mV, read-out: fraction of unblocked current) was 45.6%. The remaining activity at 10 µM (1PBC 10, 60 mV, read-out: fraction of unblocked current) was 43.7%, the remaining activity at 10 µM (1PBC 10, 80 mV, read-out: fraction of unblocked current) was 42.8% and the remaining activity at 10 µM (1PBC 10, 100 mV, read-out: fraction of unblocked current) was 43.3%. For the same molecule, the remaining activity at 10 µM (1PBC 10, 120 mV, read-out: fraction of unblocked current) was 44.7%, the remaining activity at 10 µM (1PBC 10, 140 mV, read-out: fraction of unblocked current) was 45.8% and the remaining activity at 10 µM (1PBC 10, -20 mV, read-out: fraction of unblocked current) was 56.4%. It also gave a remaining activity at 10 µM (1PBC 10, -40 mV, read-out: fraction of unblocked current) of 60.6%, a remaining activity at 10 µM (1PBC 10, -60 mV, read-out: fraction of unblocked current) of 64.3% and a remaining activity at 10 µM (1PBC 10, -80 mV, read-out: fraction of unblocked current) of 67.5%. It also gave a remaining activity at 10 µM (1PBC 10, -100 mV, read-out: fraction of unblocked current) of 70.7%, a remaining activity at 10 µM (1PBC 10, -120 mV, read-out: fraction of unblocked current) of 73.2% and a remaining activity at 10 µM (1PBC 10, -140 mV, read-out: fraction of unblocked current) of 75.5%. For the same molecule, the remaining activity at 30 µM (1PBC 30, 0 mV, read-out: fraction of unblocked current) was 27.4%, the remaining activity at 30 µM (1PBC 30, 20 mV, read-out: fraction of unblocked current) was 23.9% and the remaining activity at 30 µM (1PBC 30, 40 mV, read-out: fraction of unblocked current) was 21.7%. It also gave a remaining activity at 30 µM (1PBC 30, 60 mV, read-out: fraction of unblocked current) of 20.8%, a remaining activity at 30 µM (1PBC 30, 80 mV, read-out: fraction of unblocked current) of 20.1% and a remaining activity at 30 µM (1PBC 30, 100 mV, read-out: fraction of unblocked current) of 20.1%. For the same molecule, the remaining activity at 30 µM (1PBC 30, 120 mV, read-out: fraction of unblocked current) was 21.6%, the remaining activity at 30 µM (1PBC 30, 140 mV, read-out: fraction of unblocked current) was 22.4% and the remaining activity at 30 µM (1PBC 30, -20 mV, read-out: fraction of unblocked current) was 30.9%. For the same molecule, the remaining activity at 30 µM (1PBC 30, -40 mV, read-out: fraction of unblocked current) was 34.9%.
